Patent US12227496B2 (BRISTOL-MYERS SQUIBB COMPANY, priority 2019, dated 2025)

target: T1, human FXR (Homo sapiens, UniProt Q96RI1); test: transient human FXR/Gal4-luciferase reporter assay; format: cell-based; conditions: Gal4-hFXR LBD fusion, luciferase reporter in HEK293 cells; response relative to 8 μM GW-4064
T1 construct: expressed in transfected cells; host or cells: HEK293 cells stably carrying a 5xGal4-response-element firefly luciferase reporter, transiently transfected with pcDNA3.1-Gal4-FXR
T1 sequence (Q96RI1 262-486 limits assumed): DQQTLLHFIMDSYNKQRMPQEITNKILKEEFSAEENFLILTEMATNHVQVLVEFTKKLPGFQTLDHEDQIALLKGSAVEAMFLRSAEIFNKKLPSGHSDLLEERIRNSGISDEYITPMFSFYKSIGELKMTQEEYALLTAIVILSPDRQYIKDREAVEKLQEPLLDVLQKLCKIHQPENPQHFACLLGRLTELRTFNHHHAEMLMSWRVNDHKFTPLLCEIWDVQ
How it was run: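 HEK293 cells stably carrying a 5×Gal4-response-element firefly luciferase reporter were transiently transfected with Gal4-hFXR. They were then incubated overnight at 37 °C with compound serial dilutions in medium containing 10% charcoal/dextran-stripped FBS. Luminescence was read after Steady-Glo addition.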

| Structure (SMILES) | EC50 [µM] |
| --- | --- |
| COc1cc(-c2cccc(N(CC34CCC(c5nc(C6CC6)no5)(CC3)CC4)C(=O)C3CCCCC3)c2)ccn1 [Example 75, N-((4-(3-cyclopropyl-1,2,4-oxadiazol-5-yl)bicyclo[2.2.2]octan-1-yl)methyl)-N-(3-(2-methoxypyridin-4-yl)phenyl)cyclohexane carboxamide] | 0.129 |
| COc1ccc(-c2cccc(N(CC34CCC(c5nc(C)no5)(CC3)CC4)C(=O)C3CCCCC3)c2)cc1 [Example 76, N-(4′-methoxy-[1,1′-biphenyl]-3-yl)-N-((4-(3-methyl-1,2,4-oxadiazol-5-yl)bicyclo[2.2.2]octan-1-yl)methyl)cyclohexane carboxamide] | 0.387 |
| CCOc1ccnc(-c2cccc(N(CC34CCC(c5nc(C6CC6)no5)(CC3)CC4)C(=O)C3CCCCC3)c2)c1 [Example 77, N-((4-(3-cyclopropyl-1,2,4-oxadiazol-5-yl)bicyclo[2.2.2]octan-1-yl)methyl)-N-(3-(4-ethoxypyridin-2-yl)phenyl)cyclohexane carboxamide] | 0.268 |
| CCOc1cc(-c2cccc(N(CC34CCC(c5nc(C6CC6)no5)(CC3)CC4)C(=O)C3CCCCC3)c2)ccn1 [Example 78, N-((4-(3-cyclopropyl-1,2,4-oxadiazol-5-yl)bicyclo[2.2.2]octan-1-yl)methyl)-N-(3-(2-ethoxypyridin-4-yl)phenyl)cyclohexane carboxamide] | 0.181 |
| CCOc1cc(-c2cccc(N(CC34CCC(c5nc(C6CC6)no5)(CC3)CC4)C(=O)C3CCC(F)(F)CC3)c2)ccn1 [Example 79, N-((4-(3-cyclopropyl-1,2,4-oxadiazol-5-yl)bicyclo[2.2.2]octan-1-yl)methyl)-N-(3-(2-ethoxypyridin-4-yl)phenyl)-4,4-difluorocyclohexane-1-carboxamide] | 0.408 |
| COc1cc(-c2cccc(N(CC34CCC(c5nnc(C)s5)(CC3)CC4)C(=O)C3CCCCC3)c2)ccn1 [Example 80, N-(3-(2-methoxypyridin-4-yl)phenyl)-N-((4-(5-methyl-1,3,4-thiadiazol-2-yl)bicyclo[2.2.2]octan-1-yl)methyl)cyclohexanecarboxamide] | 0.532 |
| COc1cc(-c2cccc(N(CC34CCC(c5nnc(C)s5)(CC3)CC4)C(=O)C3CCOCC3)c2)ccn1 [Example 81, N-(3-(2-methoxypyridin-4-yl)phenyl)-N-((4-(5-methyl-1,3,4-thiadiazol-2-yl)bicyclo[2.2.2]octan-1-yl)methyl)tetrahydro-2H-pyran-4-carboxamide] | 2.5 |
| COc1cc(-c2cccc(N(CC34CCC(c5nnc(C)s5)(CC3)CC4)C(=O)C3CCC(F)(F)CC3)c2)ccn1 [Example 82, 4,4-difluoro-N-(3-(2-methoxypyridin-4-yl)phenyl)-N-((4-(5-methyl-1,3,4-thiadiazol-2-yl)bicyclo[2.2.2]octan-1-yl)methyl)cyclohexane-1-carboxamide] | 4.76 |
| COc1cc(-c2cccc(N(CC34CCC(c5nc(C6CC6)no5)(CC3)CC4)C(=O)C3CCOCC3)c2)ccn1 [Example 83, N-((4-(3-cyclopropyl-1,2,4-oxadiazol-5-yl)bicyclo[2.2.2]octan-1-yl)methyl)-N-(3-(2-methoxypyridin-4-yl)phenyl)tetrahydro-2H-pyran-4-carboxamide] | 0.303 |
| COc1nccc(-c2cccc(N(CC34CCC(c5nc(C6CC6)no5)(CC3)CC4)C(=O)C3CCOCC3)c2)n1 [Example 84, N-((4-(3-cyclopropyl-1,2,4-oxadiazol-5-yl)bicyclo[2.2.2]octan-1-yl)methyl)-N-(3-(2-methoxypyrimidin-4-yl)phenyl)tetrahydro-2H-pyran-4-carboxamide] | 1.77 |
| COc1nccc(-c2cccc(N(CC34CCC(c5nc(C6CC6)no5)(CC3)CC4)C(=O)C3CCC(F)(F)CC3)c2)n1 [Example 85, N-((4-(3-cyclopropyl-1,2,4-oxadiazol-5-yl)bicyclo[2.2.2]octan-1-yl)methyl)-4,4-difluoro-N-(3-(2-methoxypyrimidin-4-yl)phenyl)cyclohexane-1-carboxamide] | 0.787 |

The next lines start with the values.

| EC50 [µM] | Structure (SMILES) |
| --- | --- |
| 2.47 | O=C(C1CCOCC1)N(CC12CCC(c3nc(C4CC4)no3)(CC1)CC2)c1cccc(-c2ccnc(OC3CC3)n2)c1 [Example 86, N-(3-(2-cyclopropoxypyrimidin-4-yl)phenyl)-N-((4-(3-cyclopropyl-1,2,4-oxadiazol-5-yl)bicyclo[2.2.2]octan-1-yl)methyl)tetrahydro-2H-pyran-4-carboxamide] |
| 0.274 | CCOc1ncc(-c2cccc(N(CC34CCC(c5nc(C(C)(C)C)no5)(CC3)CC4)C(=O)C3CCOCC3)c2)cn1 [Example 87, N-((4-(3-(tert-butyl)-1,2,4-oxadiazol-5-yl)bicyclo[2.2.2]octan-1-yl)methyl)-N-(3-(2-ethoxypyrimidin-5-yl)phenyl)tetrahydro-2H-pyran-4-carboxamide] |
| 0.227 | CCOc1ncc(-c2cccc(N(CC34CCC(c5noc(C(C)(C)C)n5)(CC3)CC4)C(=O)C3CCOCC3)c2)cn1 [Example 88, N-((4-(5-(tert-butyl)-1,2,4-oxadiazol-3-yl)bicyclo[2.2.2]octan-1-yl)methyl)-N-(3-(2-ethoxypyrimidin-5-yl)phenyl)tetrahydro-2H-pyran-4-carboxamide] |
| 0.096 | CC(C)(C)c1nc(C23CCC(CN(C(=O)C4CCOCC4)c4cccc(-c5ccc(OC(F)F)cc5)c4)(CC2)CC3)no1 [Example 89, N-((4-(5-(tert-butyl)-1,2,4-oxadiazol-3-yl)bicyclo[2.2.2]octan-1-yl)methyl)-N-(4′-(difluoromethoxy)-[1,1′-biphenyl]-3-yl)tetrahydro-2H-pyran-4-carboxamide] |
| 0.036 | Cc1nc2ccc(-c3cccc(N(CC45CCC(c6nc(C7CC7)no6)(CC4)CC5)C(=O)C4CCCCC4)c3)cc2s1 [Example 90, N-((4-(3-cyclopropyl-1,2,4-oxadiazol-5-yl)bicyclo[2.2.2]octan-1-yl)methyl)-N-(3-(2-methylbenzo[d]thiazol-6-yl)phenyl)cyclohexanecarboxamide] |
| 0.097 | Cc1nc2ccc(-c3cccc(N(CC45CCC(c6nc(C7CC7)no6)(CC4)CC5)C(=O)C4CCOCC4)c3)cc2s1 [Example 91, N-((4-(3-cyclopropyl-1,2,4-oxadiazol-5-yl)bicyclo[2.2.2]octan-1-yl)methyl)-N-(3-(2-methylbenzo[d]thiazol-6-yl)phenyl)tetrahydro-2H-pyran-4-carboxamide] |
| 0.799 | O=C(C1CCC(F)(F)CC1)N(CC12CCC(c3nc(C4CC4)no3)(CC1)CC2)c1cccc(-c2nc3cc(F)ccc3o2)c1 [Example 93, N-((4-(3-cyclopropyl-1,2,4-oxadiazol-5-yl)bicyclo[2.2.2]octan-1-yl)methyl)-4,4-difluoro-N-(3-(5-fluorobenzo[d]oxazol-2-yl)phenyl)cyclohexane-1-carboxamide] |
| 3.43 | COc1cc(-c2cccc(N(CC34CC(c5nc(C6CC6)no5)(C3)C4)C(=O)C3CCCCC3)c2)ccn1 [Example 96, N-((3-(3-cyclopropyl-1,2,4-oxadiazol-5-yl)bicyclo[1.1.1]pentan-1-yl)methyl)-N-(3-(2-methoxypyridin-4-yl)phenyl)cyclohexanecarboxamide] |
| 1.71 | COc1cc(-c2cccc(N(CC34CC(c5nc(C6CCOCC6)no5)(C3)C4)C(=O)C3CCCCC3)c2)ccn1 [Example 97, N-(3-(2-methoxypyridin-4-yl)phenyl)-N-((3-(3-(tetrahydro-2H-pyran-4-yl)-1,2,4-oxadiazol-5-yl)bicyclo[1.1.1]pentan-1-yl)methyl)cyclohexanecarboxamide] |
